Results reported in article PMC8143347, “Metabolism and Interspecies Variation of IMMH-010, a Programmed Cell Death Ligand 1 Inhibitor Prodrug” (Pharmaceutics, 2021).

Legend:
[1] = IMMH-010 stability in mouse plasma; assay type: in vitro ADME; conditions: 10 μM, 4 °C, 60 min
Experimental: IMMH-010 hydrolysis was investigated in human, monkey, rat, and mouse plasma. IMMH-010 (1 μM) was incubated in human, monkey, or […] plasma (0.2 mL) at 37 °C for 120 min. IMMH-010 (10 μM) was incubated in rat or mouse plasma (0.2 mL) at 4 °C for 60 min. The experiments were performed in triplicate. The reactions were initiated by the addition of IMMH-010 (10 μM). After incubation, the reactions were stopped by adding 2 volumes of ice-cold acetonitrile. After vortexing and centrifuging, the concentrations of IMMH-010 and YPD-29B in the supernatant were determined by liquid chromatography with tandem mass spectrometry (LC-MS/MS). The compound olmesartan (10 μM), a substrate of paraoxonase 1, was set as the positive control.

[2] = Plasma and tumor PK in MC38 colon cancer xenograft mice; assay type: in vivo, mouse; conditions: after last oral dose of IMMH-010 maleate 5 mg/kg
Experimental: After the final dose, tumor and blood samples treated with IMMH-010 maleate (5 mg/kg) were collected over 72 h. Blood was exposed in an EP tube containing 500 mM NaF and 0.5% heparin sodium. Plasma samples were obtained by centrifugation, and tumor tissues were homogenized with 3 volumes (w/v) of saline on ice. The concentration of IMMH-010 and YPD-29B in plasma and tumor samples was quantitated by an LC-MS/MS method.
(§1) LC-MS/MS was performed using a triple quadrupole mass spectrometer (API 4000, AB Sciex, Framingham, MA, USA) with an ultra-performance liquid chromatography system (LC-30A, Shimadzu, Kyoto, Japan). Analyst 1.6.2 software (AB Sciex) was used for data acquisition and analysis. Mobile phase A was 1 mM ammonium acetate and mobile phase B was methanol. The mobile phase was delivered with the following gradient elution profile: 0–2.8 min, 70% B; 2.9 min, 85% B; 3 min, 90% B; 3.1–6.8 min, 100% B; 6.9–12 min, 70% B. The flow rate was 0.3 mL/min, and the column oven was maintained at 35 °C. The specific transitions monitored were 641.3 → 494.2 for IMMH-010, 597 → 155 for YPD-29B, 512 → 247 for M3, and 524 → 246 for M4.
(§2) All statistics were calculated using GraphPad Prism 8.0 software (San Diego, CA, USA) designed for one-way ANOVA. Pharmacokinetic parameters were calculated with a non-compartmental analysis using WinNonlin Version 6.3 (Pharsight, Mountain View, CA, USA). ADMET predictor V10.0 (Simulations Plus, Inc., Lancaster, CA, USA) and Microsoft Excel (Microsoft, Redmond, WA, USA) were used to process the data (i.e., half-life (t1/2) and hepatic clearance (CLhep) determination). Data were expressed as means ± standard deviations (SD). Results were considered statistically significant if the p-value <0.05, <0.01 and <0.001.

[3] = PK study in male cynomolgus monkeys; assay type: in vivo, cynomolgus monkey; conditions: cynomolgus monkey, plasma, single oral IMMH-010 maleate 5 mg/kg
Experimental: IMMH-010 maleate was suspended with 0.5% carboxymethyl cellulose to make a 1 mg/mL suspension for PO gavage. Four male cynomolgus monkeys received a single oral dose of IMMH-010 maleate (5 mg/kg). Serial blood samples were collected upto 48 h. The plasma was separated and the plasma concentrations of IMMH-010 and YPD-29B were determined by LC-MS/MS.
as §1, §2

CES2 = biological target: T1, CES2 (Homo sapiens, UniProt O00748); test: IMMH-010 hydrolysis by recombinant human CES2; assay type: in vitro ADME; design: purchased Cypex Ltd. (Dundee, United Kingdom); conditions: 10 μM, CES2 0.1 mg/mL, 15 min, 37 °C
T1 sequence (O00748 27-559): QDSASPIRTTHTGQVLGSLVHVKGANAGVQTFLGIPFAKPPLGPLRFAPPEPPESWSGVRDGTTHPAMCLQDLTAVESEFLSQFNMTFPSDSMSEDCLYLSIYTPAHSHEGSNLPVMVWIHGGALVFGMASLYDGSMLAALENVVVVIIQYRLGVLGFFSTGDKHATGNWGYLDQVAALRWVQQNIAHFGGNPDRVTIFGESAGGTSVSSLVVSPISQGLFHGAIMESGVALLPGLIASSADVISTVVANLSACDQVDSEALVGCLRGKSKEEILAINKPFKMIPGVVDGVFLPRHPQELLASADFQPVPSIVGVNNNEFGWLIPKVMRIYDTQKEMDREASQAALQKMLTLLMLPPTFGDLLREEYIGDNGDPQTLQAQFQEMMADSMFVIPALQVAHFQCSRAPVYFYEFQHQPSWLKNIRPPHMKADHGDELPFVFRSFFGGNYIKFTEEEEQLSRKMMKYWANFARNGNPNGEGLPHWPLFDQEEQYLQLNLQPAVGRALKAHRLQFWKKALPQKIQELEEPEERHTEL
Experimental: (§3) To verify the role of CES1, CES2, and AADAC in human metabolism of […]-010 (10 μM) was incubated individually with recombinant human CES1, CES2, and AADAC (0.1 mg protein/mL) at 37 °C for 15 min. Lidocaine (500 μM), CPT-11 (2 μM), and phenacetin (1 mM), which are substrates of CES1, CES2, and AADAC, were used as positive controls.

PD-1/PD-L1 = conditions: stated in introduction, source not given; read-out: PD-L1 inhibitory activity IC50; cited from earlier work
recombinant human AADAC = biological target: T2, recombinant human AADAC (Homo sapiens, UniProt P22760); test: IMMH-010 hydrolysis by recombinant human AADAC; assay type: in vitro ADME; conditions: 10 μM, AADAC 0.1 mg/mL, 15 min, 37 °C
T2 construct: purchased CUSABIO Biotech Co., Ltd. (Wuhan, China)
T2 sequence (P22760 1-399): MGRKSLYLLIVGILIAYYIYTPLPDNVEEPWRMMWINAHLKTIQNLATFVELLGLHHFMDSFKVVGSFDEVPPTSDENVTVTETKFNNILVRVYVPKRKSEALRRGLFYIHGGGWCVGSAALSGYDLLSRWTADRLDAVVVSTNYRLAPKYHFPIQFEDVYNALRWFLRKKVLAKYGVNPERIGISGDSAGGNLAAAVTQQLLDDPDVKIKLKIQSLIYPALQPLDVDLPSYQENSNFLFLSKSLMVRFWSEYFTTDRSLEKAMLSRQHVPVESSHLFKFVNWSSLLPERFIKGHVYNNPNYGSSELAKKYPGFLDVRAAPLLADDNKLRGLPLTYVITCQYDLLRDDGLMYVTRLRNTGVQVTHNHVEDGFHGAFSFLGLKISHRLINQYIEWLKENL
Experimental: as §3

plasma stability [1]: decreased time-dependently
concentration of IMMH-010 in plasma and tumor tissues [2]: < 1 ng/mL
AUC [3]: 47.9 ng·h/mL
Cmax [3]: 9.46 ng/mL
half-life ([3]; read-out: mean t1/2β in plasma (converted)): 5.16 h
Tmax ([3]; read-out: observed time to peak concentration): ≤ 1.5 h
remaining amount of IMMH-010 (CES2): 94.2%
remaining amount of IMMH-010 (recombinant human AADAC): 98.7%
Structure (SMILES): CC(C)OC(=O)[C@H](CO)NCc1cc(Cl)c(OCc2cccc(-c3ccccc3)c2Br)cc1OCc1cccnc1 [IMMH-010]
IC50 (PD-1/PD-L1): 10 to 100 nM
